Laboratory results taken from patent publication US20260133193A1, “COMPOSITIONS AND METHODS FOR TREATING INFLAMMATORY DISEASES” (University of Washington, priority 2018, published 2026).

Columns and labels:
Assay type in all cases: cell-based, human
[1] = tested on: neutrophils; assay: ROS analysis in neutrophils (DHR123, OxyBURST); conditions: flow cytometry and fluorimetry, cell impermeable ROS dye
[2] = tested on: FcgRIIA on neutrophils; assay: FcgRIIA shedding, flow cytometry of neutrophil cell surface FcgRs; conditions: for neutrophil cell surface expression of FcgRIIA after stimulus: flow cytometry, clone IV.3, vs non-stimulated; for effect on R848 (TLR7/8)-mediated shedding of FcgRIIA on neutrophils: agent added before R848, flow cytometry IV.3
Excerpt: To determine the mechanism for the TLR-induced reduction in RNP-IC phagocytosis, we analyzed the neutrophil surface expression of FcgRs after exposure to TLR ligand. Neutrophils were activated with R848 and cell surface expression of FcgRs analyzed by flow cytometry. The results were presented as FcgR levels as compared to no R848 added (% of control). The experiment was repeated five (FcgRI), seven (FcgRIII), and twenty-five (FcgRIIA) times; combined results were compared using paired t test (FcgRIIA, P<0.0001; FcgRI, P=0.027; FcgRIII, P=0.0044). […] In this experiment, neutrophils were activated with the TLR7/8 agonist R848 and analyzed for FcgRIIA at different time-points and concentrations. The experiment was repeated four (concentration) and six (kinetics) times; combined results were compared using paired t test (30 min, P=0.0158; 60 min, P<0.0001; 120 min, P=0.0003; 0.125 μg/mL, P=0.0071; 0.25 μg/mL, P=0.0058; 0.5 μg/mL, P=0.0008; 1 μg/mL, P<0.0001; 2 μg/mL, P<0.0001). […] For these experiments, neutrophils were activated with TLR ligands (LPS, 1 μg/mL, PAM3CSK4 (5 μg/mL), CpG DNA (2 μg/mL), Loxoribine (0.1 mM), CL075 (2.5 μg/mL) or R848 (2 μg/mL)) for 60 minutes or 4 hours and analyzed for FcgRIIA, FcgRII or CD11b and CD66b cell surface expression by flow cytometry. Experiments were repeated six (LPS, P=0.0008), eight (CpG DNA, P=0.035; Loxoribine, P<0.0001, and CL075, P<0.0001), ten (PAM3CSK4, P<0.0001) and forty times (R848, P<0.0001); combined results were compared using paired t test. Additional experiments were repeated four and eight times; combined results were compared using paired t test (CD11b: R848, P<0.0001; LPS, P=0.0002; PAM, P<0.0001; CpG DNA, P<0.0001; CD66b: R848, P<0.0001; LPS, P<0.0001; PAM, P<0.0001; CpG DNA, P=0.014).
Neutrophils were activated by LPS (1 μg/mL), R848 (2 μg/mL), PAM3CSK4 (5 μg/mL), Loxoribine (0.1 mM), CL075 (2.5 μg/mL) or CpG DNA (2 μg/mL) for 30 minutes, followed by analysis of cell surface expression of CD32A (IV.3; Stemcell Technologies, FUN-2, BioLegend), CD16 (clone 3G8), CD64 (clone 10.1), and CD66b (all from BioLegend) by flow cytometry. For intracellular staining, neutrophils were fixed in 2% paraformaldehyde for 10 minutes, permeabilized with saponin (diluted 1:1000 in PBS) for 15 minutes and stained with anti-CD32A antibodies diluted 1:100. In some experiments, neutrophils were incubated with inhibitors (DPI (25 μM, Sigma), apocynin (100 μM, Sigma), GM-6001 (10 μM, Enzo Life Sciences), LY294002 (10 μM), cOmplete Protease Inhibitor Cocktail Tablets (1× dissolved in H2O, Roche), neutrophil elastase IV inhibitor (25 μM, Calbiochem), E-64 (1 μM, Sigma), 4-(2-Aminoethyl)benzenesulfonyl fluoride hydrochloride (AEBSF, 0.1 mM, Sigma), CMK (25 μM, Enzo Life Sciences), cytochalasin B (5 μM, Sigma) or chymostatin (10 μg/mL, Sigma)) or recombinant furin (100 ng/mL, maximal dose tolerated by the neutrophils, Peprotech) 30 minutes prior to addition of stimuli. In some experiments cell surface levels of B cell activating factor (BAFF, Biolegend) was analyzed according to the same protocol as described above. Monocytes and pDCs were detected using antibodies to CD14 (BioLegend) and CD304 (Miltenyi Biotech), respectively.

[3] = tested on: BAFF; assay: BAFF cell surface expression on neutrophils; conditions: furin 100 ng/mL, 30 minutes before R848
Description: To determine which protease(s) were involved in the shedding of FcgRIIA, neutrophils were incubated with selective protease inhibitors prior to the addition of the TLR agonist. Cell surface levels of FcgRIIA (IV.3) was analyzed by flow cytometry upon R848 activation in the presence of a pan protease inhibitor or inhibitors of matrix metalloproteases (GM6001, 10 μM), cysteine proteases (E-64, 1 μM), serine proteases (AEBSF, 100 μM), neutrophil elastase (Elastase inhibitor IV, 25 μM), cathepsin G (chymostatin, 10 μg/mL) or furin (chloromethylketone (CMK, 25 μM). The experiment was repeated three (E-64), four (Pan Prot.inh., P<0.0001; AEBSF, P=0.0004; chymostatin; and CMK, P=0.0038), five (GM6001), and seven (NEi) times; combined results were compared using paired t test. […] Additionally, neutrophils were incubated with furin (100 ng/mL) or CMK 30 minutes prior to addition of R848. BAFF cell surface expression was analyzed by flow cytometry. […] Briefly, neutrophils were incubated with furin (100 ng/mL) in presence or absence of R848 and analyzed for FcgRIIA levels by flow cytometry. […] Finally, supernatant from activated neutrophils was fractionated and analyzed for capacity to induce shedding of monocyte FcgRIIA without, or with prior boiling of the fractions. […]

[4] = tested on: FcgRIIA on neutrophils; assay: SLE serum-mediated FcgRIIA shedding on healthy control neutrophils; conditions: sera from 6 SLE patients, IV.3/FUN2
Description: As neutrophil and monocyte FcgRIIA shedding was highly correlated in SLE patients upon ex vivo analysis (correlation analysis for ex vivo monocyte and neutrophil (PMN) FcgRIIA shedding in SLE patients was performed; combined results were analyzed using Spearman's correlation (r=0.84, P<0.0001)), we asked whether this could be attributed to circulating proteases, likely neutrophil-derived. […] Consistent with a role of RNA ICs, serum-mediated FcgRIIA shedding was higher in patients with anti-Sm/RNP antibodies (sera from 6 SLE patients, pre-incubated with either RNase, a pan-protease inhibitor (prot.inh.), or cytochalasin B (Cyto B, 5 μM) were added to neutrophils from a healthy individual and FcgRIIA shedding analyzed by flow cytometry; combined results were compared using paired t test (RNase: P=0.012; prot.inh.: P=0.0002; Cyto B: P<0.0001)). […] Finally, SLE serum-mediated shedding of FcgRIIA from healthy control neutrophils strongly correlated with the FcgRIIA shedding observed upon ex vivo isolation of the SLE patient's neutrophils (correlation between ex vivo FcgRIIA shedding observed on SLE neutrophils with the shedding ability by the serum obtained from the same SLE patients (n=12); combined results were analyzed by Spearman's correlation (r=0.73, P=0.0096)). […]

CCCCCCCCCCCCCC(=O)O[C@@H]1[C@@H](C)[C@@]2(O)[C@@H](C=C(CO)C[C@]3(O)C(=O)C(C)=C[C@@H]23)[C@@H]2C(C)(C)[C@]12OC(C)=O [PMA]
cellular localization of ROS generation [1]: induced both intracellular and extracellular ROS generation

C=CCn1c(=O)n([C@@H]2O[C@H](CO)[C@@H](O)[C@H]2O)c2nc(N)[nH]c(=O)c21 [Loxoribine]
neutrophil cell surface expression of FcgRIIA after stimulus [2]: reduced neutrophil cell surface levels of FcgRIIA, but not of FcgRIIIB

[Cl-].c1ccc2c(c1)[I+]c1ccccc1-2 [DPI]
effect on R848 (TLR7/8)-mediated shedding of FcgRIIA on neutrophils [2]: completely restored cell surface levels of FcgRIIA
effect on LPS- or PAM3CSK4-mediated shedding of FcgRIIA ([2]; neutrophils activated with LPS or PAM3CSK4 in presence of DPI): dependent on NADPH oxidase

Cl.NCCc1ccc(S(=O)(=O)F)cc1 [AEBSF, 4-(2-Aminoethyl)benzenesulfonyl fluoride hydrochloride]
effect on R848 (TLR7/8)-mediated shedding of FcgRIIA on neutrophils [2]: dependent on serine proteases

furin: recombinant furin, pro-protein convertase (Peprotech)
effect on R848 (TLR7/8)-mediated shedding of FcgRIIA on neutrophils [2]: did not affect FcgRIIA shedding on neutrophils
BAFF cell surface expression [3]: increased cell surface BAFF levels

CCCc1nc2c(N)nc3ccccc3c2s1 [CL075]
neutrophil cell surface expression of FcgRIIA after stimulus [2]: reduced neutrophil cell surface levels of FcgRIIA, but not of FcgRIIIB

C=C1[C@@H](C)[C@H]2[C@H](Cc3ccccc3)NC(=O)[C@]23OC(=O)/C=C/[C@H](O)CCC[C@@H](C)C/C=C/[C@H]3[C@@H]1O [cytochalasin B]
effect on SLE serum-mediated FcgRIIA shedding [4]: almost completely abrogated serum-mediated FcgRIIA shedding

PAM3CSK4
neutrophil cell surface expression of FcgRIIA after stimulus [2]: reduced neutrophil cell surface levels of FcgRIIA, but not of FcgRIIIB

COc1cc(C(C)=O)ccc1O [apocynin]
effect on R848 (TLR7/8)-mediated shedding of FcgRIIA on neutrophils [2]: completely restored cell surface levels of FcgRIIA
